Laboratory results published in patent US9340590B2 (priority 2011, dated 2016).
Positions of bridges follow the written chain, without caps; N, C: chain ends. Residues, ends and D or L forms follow the SMILES beside them.

Columns and labels:
Assay in all cases: cell-based
hNav1.7 = hNav1.7 (Homo sapiens, UniProt Q15858); format: cell-based; conditions: IonWorks Quattro; clamped to −110 mV, depolarized to −10 mV, 5 min after compound; n=2; read-out: IWQ Use Nav1.7
hNav1.3 = hNav1.3 (Homo sapiens, UniProt Q9NY46); conditions: IonWorks Quattro; clamped to −110 mV, depolarized to −10 mV, 5 min after compound; n=2; read-out: IWQ Use Nav1.3
Chain of hNav1.3 (Q9NY46 whole entry, looked up): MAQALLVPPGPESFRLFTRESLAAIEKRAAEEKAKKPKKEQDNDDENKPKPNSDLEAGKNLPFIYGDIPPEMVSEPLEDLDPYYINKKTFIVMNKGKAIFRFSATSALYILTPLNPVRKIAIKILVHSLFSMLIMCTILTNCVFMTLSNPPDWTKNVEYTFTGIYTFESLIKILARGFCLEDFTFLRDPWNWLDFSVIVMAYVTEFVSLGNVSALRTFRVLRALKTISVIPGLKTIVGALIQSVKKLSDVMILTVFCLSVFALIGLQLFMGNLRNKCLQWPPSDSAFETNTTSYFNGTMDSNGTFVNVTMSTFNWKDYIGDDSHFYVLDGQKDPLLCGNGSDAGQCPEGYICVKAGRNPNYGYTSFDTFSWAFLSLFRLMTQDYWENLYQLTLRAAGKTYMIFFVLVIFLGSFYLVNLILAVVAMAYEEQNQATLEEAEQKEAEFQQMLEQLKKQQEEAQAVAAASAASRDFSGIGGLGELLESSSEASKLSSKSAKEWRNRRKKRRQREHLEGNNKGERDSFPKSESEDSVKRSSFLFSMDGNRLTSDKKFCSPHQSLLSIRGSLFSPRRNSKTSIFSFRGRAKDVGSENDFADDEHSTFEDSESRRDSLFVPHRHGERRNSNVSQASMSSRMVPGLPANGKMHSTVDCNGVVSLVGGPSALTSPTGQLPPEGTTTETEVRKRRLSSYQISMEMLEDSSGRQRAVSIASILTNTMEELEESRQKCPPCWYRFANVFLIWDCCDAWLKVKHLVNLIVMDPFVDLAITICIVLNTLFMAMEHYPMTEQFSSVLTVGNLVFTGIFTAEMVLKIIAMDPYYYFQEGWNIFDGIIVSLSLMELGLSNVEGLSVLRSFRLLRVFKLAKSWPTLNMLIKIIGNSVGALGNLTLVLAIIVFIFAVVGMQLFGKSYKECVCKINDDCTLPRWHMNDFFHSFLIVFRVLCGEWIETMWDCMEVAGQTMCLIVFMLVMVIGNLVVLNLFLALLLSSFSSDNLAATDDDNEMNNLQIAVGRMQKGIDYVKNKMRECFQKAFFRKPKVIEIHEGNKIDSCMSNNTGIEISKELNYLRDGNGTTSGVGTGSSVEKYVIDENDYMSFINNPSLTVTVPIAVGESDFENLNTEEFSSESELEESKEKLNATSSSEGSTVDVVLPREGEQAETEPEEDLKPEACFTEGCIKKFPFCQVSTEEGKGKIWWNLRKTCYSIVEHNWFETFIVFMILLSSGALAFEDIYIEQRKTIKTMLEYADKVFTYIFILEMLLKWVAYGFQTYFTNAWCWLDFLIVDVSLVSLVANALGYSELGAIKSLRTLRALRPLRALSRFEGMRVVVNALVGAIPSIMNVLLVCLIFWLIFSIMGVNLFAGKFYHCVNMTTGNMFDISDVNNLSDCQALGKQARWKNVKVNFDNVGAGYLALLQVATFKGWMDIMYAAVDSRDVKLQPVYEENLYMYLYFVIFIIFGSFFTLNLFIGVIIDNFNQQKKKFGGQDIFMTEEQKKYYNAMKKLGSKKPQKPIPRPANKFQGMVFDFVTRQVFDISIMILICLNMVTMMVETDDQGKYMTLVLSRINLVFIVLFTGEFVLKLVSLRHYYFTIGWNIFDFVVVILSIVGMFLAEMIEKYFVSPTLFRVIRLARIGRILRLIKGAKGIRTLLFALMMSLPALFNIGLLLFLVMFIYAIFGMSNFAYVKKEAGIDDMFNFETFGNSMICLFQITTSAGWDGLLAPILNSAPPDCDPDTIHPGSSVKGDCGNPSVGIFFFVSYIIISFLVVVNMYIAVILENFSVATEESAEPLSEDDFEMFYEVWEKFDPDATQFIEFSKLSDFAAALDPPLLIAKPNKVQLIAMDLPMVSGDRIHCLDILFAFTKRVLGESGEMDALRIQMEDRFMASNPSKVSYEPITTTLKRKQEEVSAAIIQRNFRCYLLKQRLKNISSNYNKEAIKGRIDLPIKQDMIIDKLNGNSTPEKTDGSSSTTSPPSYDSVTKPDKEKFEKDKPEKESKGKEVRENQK

hNav1.5 = hNav1.5 (Homo sapiens, UniProt Q14524); conditions: IonWorks Quattro; clamped to −110 mV, depolarized to −10 mV, 5 min after compound; n=2; read-out: IWQ Use Nav1.5

Chain of hNav1.7 (Q15858 whole entry, looked up): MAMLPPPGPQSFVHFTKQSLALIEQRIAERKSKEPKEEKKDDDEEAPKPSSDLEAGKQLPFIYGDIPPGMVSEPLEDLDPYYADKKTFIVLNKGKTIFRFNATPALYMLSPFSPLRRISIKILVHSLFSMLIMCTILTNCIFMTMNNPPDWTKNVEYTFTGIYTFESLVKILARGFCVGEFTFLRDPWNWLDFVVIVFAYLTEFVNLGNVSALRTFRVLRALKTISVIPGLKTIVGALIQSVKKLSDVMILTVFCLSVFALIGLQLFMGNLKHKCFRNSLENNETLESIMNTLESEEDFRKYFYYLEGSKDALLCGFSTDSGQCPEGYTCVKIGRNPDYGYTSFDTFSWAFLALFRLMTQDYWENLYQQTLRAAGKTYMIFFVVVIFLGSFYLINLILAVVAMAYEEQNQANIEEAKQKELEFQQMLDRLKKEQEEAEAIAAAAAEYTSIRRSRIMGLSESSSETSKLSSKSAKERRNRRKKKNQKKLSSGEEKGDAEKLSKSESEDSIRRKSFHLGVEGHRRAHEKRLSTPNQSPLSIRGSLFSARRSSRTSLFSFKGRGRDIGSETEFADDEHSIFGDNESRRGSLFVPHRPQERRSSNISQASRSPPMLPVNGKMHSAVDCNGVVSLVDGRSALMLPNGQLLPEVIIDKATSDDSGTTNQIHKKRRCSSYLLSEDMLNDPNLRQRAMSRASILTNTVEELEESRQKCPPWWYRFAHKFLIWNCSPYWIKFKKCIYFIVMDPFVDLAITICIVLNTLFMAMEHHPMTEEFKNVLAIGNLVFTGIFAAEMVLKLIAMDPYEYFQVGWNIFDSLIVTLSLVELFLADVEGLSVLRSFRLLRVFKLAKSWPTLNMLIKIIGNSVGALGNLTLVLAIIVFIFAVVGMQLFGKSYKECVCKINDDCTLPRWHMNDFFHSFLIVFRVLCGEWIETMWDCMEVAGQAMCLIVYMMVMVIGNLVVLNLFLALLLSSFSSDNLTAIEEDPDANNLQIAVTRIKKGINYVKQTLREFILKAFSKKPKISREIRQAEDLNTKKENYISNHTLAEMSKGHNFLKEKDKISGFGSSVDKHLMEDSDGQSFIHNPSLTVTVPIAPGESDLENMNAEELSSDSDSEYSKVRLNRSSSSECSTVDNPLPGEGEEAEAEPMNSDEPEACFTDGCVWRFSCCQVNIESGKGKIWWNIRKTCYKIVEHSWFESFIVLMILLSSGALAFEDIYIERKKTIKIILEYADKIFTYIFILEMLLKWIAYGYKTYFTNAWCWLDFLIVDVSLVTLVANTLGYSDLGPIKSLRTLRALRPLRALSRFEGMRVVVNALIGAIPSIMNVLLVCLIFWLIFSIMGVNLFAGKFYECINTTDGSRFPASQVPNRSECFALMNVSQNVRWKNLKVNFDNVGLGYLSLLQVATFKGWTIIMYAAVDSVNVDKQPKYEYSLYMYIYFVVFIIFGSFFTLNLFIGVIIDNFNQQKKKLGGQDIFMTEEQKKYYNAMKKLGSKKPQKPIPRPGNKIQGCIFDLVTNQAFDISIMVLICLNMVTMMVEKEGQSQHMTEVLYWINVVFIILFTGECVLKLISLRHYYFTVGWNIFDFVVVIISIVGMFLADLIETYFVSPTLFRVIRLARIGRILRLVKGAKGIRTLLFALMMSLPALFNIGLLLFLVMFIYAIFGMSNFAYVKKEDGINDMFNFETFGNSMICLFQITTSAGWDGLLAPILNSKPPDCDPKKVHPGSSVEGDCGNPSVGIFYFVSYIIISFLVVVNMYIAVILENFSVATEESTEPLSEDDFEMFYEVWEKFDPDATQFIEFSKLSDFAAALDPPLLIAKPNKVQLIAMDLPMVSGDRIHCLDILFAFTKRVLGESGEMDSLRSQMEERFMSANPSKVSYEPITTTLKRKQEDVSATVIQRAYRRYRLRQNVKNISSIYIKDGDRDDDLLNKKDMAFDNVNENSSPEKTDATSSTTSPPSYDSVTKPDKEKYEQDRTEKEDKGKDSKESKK

| Structure (SMILES) | IC50 (hNav1.7) [µM] | IC50 (hNav1.3) [µM] | IC50 (hNav1.5) [µM] |
| --- | --- | --- | --- |
| CC[C@H](C)[C@@H]1NC(=O)[C@@H]2CSSC[C@@H]3NC(=O)[C@H](C(C)C)NC(=O)[C@H](CC(C)C)NC(=O)[C@H](CC(N)=O)NC(=O)[C@@H]4CCCN4C(=O)[C@H](CCCNC(=N)N)NC(=O)[C@H](CSSC[C@H](NC(=O)[C@@H](N)CC(=O)O)C(=O)N[C@@H](CC(C)C)C(=O)NCC(=O)N[C@@H](CCSC)C(=O)N[C@@H](CCSC)C(=O)N[C@@H](CCCNC(=N)N)C(=O)N[C@@H](CCCCN)C(=O)N2)NC(=O)[C@H](CSSC[C@@H](C(=O)N[C@@H](CCCCN)C(=O)N[C@@H](Cc2ccc(O)cc2)C(=O)N[C@H](C(=O)N[C@@H](Cc2ccccc2)C(N)=O)C(C)C)NC(=O)[C@H](Cc2c[nH]c4ccccc24)NC(=O)[C@H](CCCCN)NC(=O)[C@H](Cc2cnc[nH]2)NC(=O)[C@H]([C@@H](C)O)NC(=O)[C@H](CCCNC(=N)N)NC(=O)[C@H](CO)NC3=O)NC(=O)[C@H](CCCCN)NC(=O)[C@H](CC(=O)O)NC(=O)[C@H](CC(N)=O)NC(=O)[C@H](CC(=O)O)NC(=O)[C@@H]2CCCN2C1=O [SEQ ID NO: 268] (H-DCLGMMRKCIPDNDKCCRPNLVCSRTHKWCKYVF-NH2; disulfide 2-17, 9-23, 16-30) | 0.1 | 0.24 | 12.8 |
| CC[C@H](C)[C@@H]1NC(=O)[C@@H]2CSSC[C@@H]3NC(=O)[C@H](C(C)C)NC(=O)[C@H](CC(C)C)NC(=O)[C@H](CC(N)=O)NC(=O)[C@@H]4CCCN4C(=O)[C@H](CCCNC(=N)N)NC(=O)[C@H](CSSC[C@H](NC(=O)[C@@H](N)CC(=O)O)C(=O)N[C@@H](CC(C)C)C(=O)NCC(=O)N4CCC[C@H]4C(=O)N[C@@H](CCSC)C(=O)N[C@@H](CCCNC(=N)N)C(=O)N[C@@H](CCCCN)C(=O)N2)NC(=O)[C@H](CSSC[C@@H](C(=O)N[C@@H](CCCCN)C(=O)N[C@@H](Cc2ccc(O)cc2)C(=O)N[C@H](C(=O)N[C@@H](Cc2ccccc2)C(N)=O)C(C)C)NC(=O)[C@H](Cc2c[nH]c4ccccc24)NC(=O)[C@H](CCCCN)NC(=O)[C@H](Cc2c[nH]cn2)NC(=O)[C@H]([C@@H](C)O)NC(=O)[C@H](CCCNC(=N)N)NC(=O)[C@H](CO)NC3=O)NC(=O)[C@H](CCCCN)NC(=O)[C@H](CC(=O)O)NC(=O)[C@H](CC(N)=O)NC(=O)[C@H](CC(=O)O)NC(=O)[C@@H]2CCCN2C1=O [SEQ ID NO: 269] (H-DCLGPMRKCIPDNDKCCRPNLVCSRTHKWCKYVF-NH2; disulfide 2-17, 9-23, 16-30) | 1.17 | 1.73 | 6.61 |
| CC[C@H](C)[C@@H]1NC(=O)[C@@H]2CSSC[C@@H]3NC(=O)[C@H](C(C)C)NC(=O)[C@H](CC(C)C)NC(=O)[C@H](CC(N)=O)NC(=O)[C@@H]4CCCN4C(=O)[C@H](CCCNC(=N)N)NC(=O)[C@H](CSSC[C@H](NC(=O)[C@@H](N)CC(=O)O)C(=O)N[C@@H](CC(C)C)C(=O)NCC(=O)N[C@@H]([C@@H](C)O)C(=O)N[C@@H](CCSC)C(=O)N[C@@H](CCCNC(=N)N)C(=O)N[C@@H](CCCCN)C(=O)N2)NC(=O)[C@H](CSSC[C@@H](C(=O)N[C@@H](CCCCN)C(=O)N[C@@H](Cc2ccc(O)cc2)C(=O)N[C@H](C(=O)N[C@@H](Cc2ccccc2)C(N)=O)C(C)C)NC(=O)[C@H](Cc2c[nH]c4ccccc24)NC(=O)[C@H](CCCCN)NC(=O)[C@H](Cc2c[nH]cn2)NC(=O)[C@H]([C@@H](C)O)NC(=O)[C@H](CCCNC(=N)N)NC(=O)[C@H](CO)NC3=O)NC(=O)[C@H](CCCCN)NC(=O)[C@H](CC(=O)O)NC(=O)[C@H](CC(N)=O)NC(=O)[C@H](CC(=O)O)NC(=O)[C@@H]2CCCN2C1=O [SEQ ID NO: 270] (H-DCLGTMRKCIPDNDKCCRPNLVCSRTHKWCKYVF-NH2; disulfide 2-17, 9-23, 16-30) | 1.22 | 2.19 | 15.2 |
| CC[C@H](C)[C@@H]1NC(=O)[C@@H]2CSSC[C@@H]3NC(=O)[C@H](C(C)C)NC(=O)[C@H](CC(C)C)NC(=O)[C@H](CC(N)=O)NC(=O)[C@@H]4CCCN4C(=O)[C@H](CCCNC(=N)N)NC(=O)[C@H](CSSC[C@H](NC(=O)[C@@H](N)CC(=O)O)C(=O)N[C@@H](CC(C)C)C(=O)NCC(=O)N[C@@H](Cc4ccc(O)cc4)C(=O)N[C@@H](CCSC)C(=O)N[C@@H](CCCNC(=N)N)C(=O)N[C@@H](CCCCN)C(=O)N2)NC(=O)[C@H](CSSC[C@@H](C(=O)N[C@@H](CCCCN)C(=O)N[C@@H](Cc2ccc(O)cc2)C(=O)N[C@H](C(=O)N[C@@H](Cc2ccccc2)C(N)=O)C(C)C)NC(=O)[C@H](Cc2c[nH]c4ccccc24)NC(=O)[C@H](CCCCN)NC(=O)[C@H](Cc2c[nH]cn2)NC(=O)[C@H]([C@@H](C)O)NC(=O)[C@H](CCCNC(=N)N)NC(=O)[C@H](CO)NC3=O)NC(=O)[C@H](CCCCN)NC(=O)[C@H](CC(=O)O)NC(=O)[C@H](CC(N)=O)NC(=O)[C@H](CC(=O)O)NC(=O)[C@@H]2CCCN2C1=O [SEQ ID NO: 271] (H-DCLGYMRKCIPDNDKCCRPNLVCSRTHKWCKYVF-NH2; disulfide 2-17, 9-23, 16-30) | 1.43 | 1.64 | 15.6 |
| CC[C@H](C)[C@@H]1NC(=O)[C@@H]2CSSC[C@@H]3NC(=O)[C@H](C(C)C)NC(=O)[C@H](CC(C)C)NC(=O)[C@H](CC(N)=O)NC(=O)[C@@H]4CCCN4C(=O)[C@H](CCCNC(=N)N)NC(=O)[C@H](CSSC[C@H](NC(=O)[C@@H](N)CC(=O)O)C(=O)N[C@@H](CC(C)C)C(=O)NCC(=O)N(C)[C@@H](Cc4c[nH]c5ccccc45)C(=O)N[C@@H](CCSC)C(=O)N[C@@H](CCCNC(=N)N)C(=O)N[C@@H](CCCCN)C(=O)N2)NC(=O)[C@H](CSSC[C@@H](C(=O)N[C@@H](CCCCN)C(=O)N[C@@H](Cc2ccc(O)cc2)C(=O)N[C@H](C(=O)N[C@@H](Cc2ccccc2)C(N)=O)C(C)C)NC(=O)[C@H](Cc2c[nH]c4ccccc24)NC(=O)[C@H](CCCCN)NC(=O)[C@H](Cc2c[nH]cn2)NC(=O)[C@H]([C@@H](C)O)NC(=O)[C@H](CCCNC(=N)N)NC(=O)[C@H](CO)NC3=O)NC(=O)[C@H](CCCCN)NC(=O)[C@H](CC(=O)O)NC(=O)[C@H](CC(N)=O)NC(=O)[C@H](CC(=O)O)NC(=O)[C@@H]2CCCN2C1=O [SEQ ID NO: 274] | 0.19 | 0.15 | > 5 |
| CC[C@H](C)[C@@H]1NC(=O)[C@@H]2CSSC[C@@H]3NC(=O)[C@H](C(C)C)NC(=O)[C@H](CC(C)C)NC(=O)[C@H](CC(N)=O)NC(=O)[C@@H]4CCCN4C(=O)[C@H](CCCNC(=N)N)NC(=O)[C@H](CSSC[C@H](NC(=O)[C@@H](N)CC(=O)O)C(=O)N[C@@H](CC(C)C)C(=O)NCC(=O)N[C@@H](c4ccccc4)C(=O)N[C@@H](CCSC)C(=O)N[C@@H](CCCNC(=N)N)C(=O)N[C@@H](CCCCN)C(=O)N2)NC(=O)[C@H](CSSC[C@@H](C(=O)N[C@@H](CCCCN)C(=O)N[C@@H](Cc2ccc(O)cc2)C(=O)N[C@H](C(=O)N[C@@H](Cc2ccccc2)C(N)=O)C(C)C)NC(=O)[C@H](Cc2c[nH]c4ccccc24)NC(=O)[C@H](CCCCN)NC(=O)[C@H](Cc2c[nH]cn2)NC(=O)[C@H]([C@@H](C)O)NC(=O)[C@H](CCCNC(=N)N)NC(=O)[C@H](CO)NC3=O)NC(=O)[C@H](CCCCN)NC(=O)[C@H](CC(=O)O)NC(=O)[C@H](CC(N)=O)NC(=O)[C@H](CC(=O)O)NC(=O)[C@@H]2CCCN2C1=O [SEQ ID NO: 275] | 0.09 | 0.17 | > 5 |
| CC[C@H](C)[C@@H]1NC(=O)[C@@H]2CSSC[C@@H]3NC(=O)[C@H](C(C)C)NC(=O)[C@H](CC(C)C)NC(=O)[C@H](CC(N)=O)NC(=O)[C@@H]4CCCN4C(=O)[C@H](CCCNC(=N)N)NC(=O)[C@H](CSSC[C@H](NC(=O)[C@@H](N)CC(=O)O)C(=O)N[C@@H](CC(C)C)C(=O)NCC(=O)N[C@@H](Cc4ccc(C(=O)O)cc4)C(=O)N[C@@H](CCSC)C(=O)N[C@@H](CCCNC(=N)N)C(=O)N[C@@H](CCCCN)C(=O)N2)NC(=O)[C@H](CSSC[C@@H](C(=O)N[C@@H](CCCCN)C(=O)N[C@@H](Cc2ccc(O)cc2)C(=O)N[C@H](C(=O)N[C@@H](Cc2ccccc2)C(N)=O)C(C)C)NC(=O)[C@H](Cc2c[nH]c4ccccc24)NC(=O)[C@H](CCCCN)NC(=O)[C@H](Cc2c[nH]cn2)NC(=O)[C@H]([C@@H](C)O)NC(=O)[C@H](CCCNC(=N)N)NC(=O)[C@H](CO)NC3=O)NC(=O)[C@H](CCCCN)NC(=O)[C@H](CC(=O)O)NC(=O)[C@H](CC(N)=O)NC(=O)[C@H](CC(=O)O)NC(=O)[C@@H]2CCCN2C1=O [SEQ ID NO: 276] | 16 | 5.42 | 8.12 |
| CC[C@H](C)[C@@H]1NC(=O)[C@@H]2CSSC[C@@H]3NC(=O)[C@H](C(C)C)NC(=O)[C@H](CC(C)C)NC(=O)[C@H](CC(N)=O)NC(=O)[C@@H]4CCCN4C(=O)[C@H](CCCNC(=N)N)NC(=O)[C@H](CSSC[C@H](NC(=O)[C@@H](N)CC(=O)O)C(=O)N[C@@H](CC(C)C)C(=O)NCC(=O)N[C@@H](Cc4ccccn4)C(=O)N[C@@H](CCSC)C(=O)N[C@@H](CCCNC(=N)N)C(=O)N[C@@H](CCCCN)C(=O)N2)NC(=O)[C@H](CSSC[C@@H](C(=O)N[C@@H](CCCCN)C(=O)N[C@@H](Cc2ccc(O)cc2)C(=O)N[C@H](C(=O)N[C@@H](Cc2ccccc2)C(N)=O)C(C)C)NC(=O)[C@H](Cc2c[nH]c4ccccc24)NC(=O)[C@H](CCCCN)NC(=O)[C@H](Cc2c[nH]cn2)NC(=O)[C@H]([C@@H](C)O)NC(=O)[C@H](CCCNC(=N)N)NC(=O)[C@H](CO)NC3=O)NC(=O)[C@H](CCCCN)NC(=O)[C@H](CC(=O)O)NC(=O)[C@H](CC(N)=O)NC(=O)[C@H](CC(=O)O)NC(=O)[C@@H]2CCCN2C1=O [SEQ ID NO: 277] | 2.07 | 4.58 | 9.25 |
